Measurements from paper PMC9268102, “Design, Synthesis and Biological Evaluation of 1,3,5-Triazine Derivatives Targeting hA1 and hA3 Adenosine Receptor” (Molecules, 2022).

Tests used:
Type in all cases: cell-based
A549 cells = assay: Live-dead assay (calcein/EthD-1) by flow cytometry; details: 48 h
Experimental: A live cell assay and a dead cell assay were carried out using a mixture of two fluorescent dyes: calcein (green dye for live cells) and ethidium homodimer-1 (EthD-1, red dye for dead cells). The cells were washed and stained with calcein and EthD-1 before conducting imaging fluorescence microscopy and flow cytometry experiments. When treated with 20 μM 9c, we observed a drastic decrease in the number of live cells (green) and a slight increase in the number of dead cells (red).
The A549 cells were seeded in 6-well plates at a density of 1 × 10^6 cells per well, and the cells underwent treatment with the compound (20 and 40 μM) for 48 h. The A549 cells were analyzed using fluorescent dyes for both living and dead cells with the LIVE/DEAD kit (Thermo Fisher Scientific, Waltham, MA, USA). For cell staining, we used EthD-1 and calcein by referring to the manufacturer’s instructions. Images were captured with an EVOS M5000 Imaging System (Thermo Fisher Scientific Inc., Waltham, MA, USA).

NCI-H1299 cells = assay: Cell viability (MTS) assay in NCI-H1299 cells; details: Homo sapiens, 48 h
Experimental: To test the effect of the compounds in terms of cell growth regulation in lung cancer cell lines such as A549 and NCI-H1299 cells, these cells were treated in 96-well plates for 48 h with the compounds at concentrations ranging from 0 μM to 100 μM. […] Therefore, we decided to perform an additional experiment with 9c.
A549 and NCI-H1299 cells were seeded in 96-well plates at a density of 1 × 10^5 cells per well for 24 h before being exposed to compounds at various concentrations. After 48 h of compound treatment, the CellTiter 96 AQueous One Solution Cell Proliferation Assay Kit (Promega, Madison, WI, USA) was used to conduct a cell viability assay. The cells were incubated with solution reagents for 2 h at 37 °C before being measured for absorbance at 490 nm using a Synergy HTX Multi-Mode microplate reader (BioTek Instruments, Inc., Winooski, VT, USA).

hA3 AR [1] = target: T1, hA3 AR (Homo sapiens, UniProt P0DMS8); assay: cAMP accumulation assay, agonist mode, hA3 AR; design: expressed in transfected cells; details: relative to NECA, CHO-A3#18 cells
T1 sequence (P0DMS8 1-318): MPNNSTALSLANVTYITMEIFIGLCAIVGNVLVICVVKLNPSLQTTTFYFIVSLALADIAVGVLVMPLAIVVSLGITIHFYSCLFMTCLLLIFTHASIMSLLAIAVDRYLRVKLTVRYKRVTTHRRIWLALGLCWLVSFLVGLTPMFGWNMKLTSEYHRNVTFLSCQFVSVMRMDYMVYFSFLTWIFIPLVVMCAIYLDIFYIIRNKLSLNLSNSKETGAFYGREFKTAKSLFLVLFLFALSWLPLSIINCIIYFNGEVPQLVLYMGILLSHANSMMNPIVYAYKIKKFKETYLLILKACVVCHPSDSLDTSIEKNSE
Excerpt: (§1) To determine whether 1,3,5-triazine scaffold derivatives behave as agonists or antagonists, we performed cAMP accumulation assays with 11a and 11b at hA1 and hA3 AR. We confirmed whether the test compounds behave as antagonists by measuring the concentration change in cAMP in the presence of a full agonist 5-N-ethylcarboxamido adenosine (NECA) using antagonist mode assays. We also confirmed whether the test compounds could behave as agonists by comparing the relative percentage activation of NECA using agonist mode assays.
(§2) hA1 and hA3 AR functional experiments were carried out in CHO-A1 and CHO-A3#18 cell line, respectively. The day before the assay, the cells were seeded on the 96-well culture plate (Falcon 353072). The cells were washed with wash buffer (Mixture F12 Ham’s (Sigma N6658) for hA1 AR; Dulbecco’s modified eagle’s medium nutrient mixture F-12 ham (Sigma D8062) for hA3 AR; 25mM Hepes; pH = 7.4). Wash buffer was replaced by incubation buffer (Mixture F12 Ham’s (Sigma N6658) for hA1 AR; Dulbecco’s modified eagle’s medium nutrient mixture F-12 ham (Sigma D8062) for hA3 AR; 25 mM Hepes, 20 µM Rolipram (Sigma R6520); pH = 7.4). The cells were pre-incubated at 37 °C for 15 min. […] After incubation, the amount of cAMP was determined using cAMP Biotrak Enzyme immunoassay (EIA) System Kit (GE Healthcare RPN225).

hA1 AR [2] = target: T2, hA1 AR (Homo sapiens, UniProt P30542); assay: cAMP accumulation assay, agonist mode, hA1 AR; details: relative to NECA, CHO-A1 cells
T2 construct: host or cells: CHO-A1 (CHO cells expressing hA1 AR)
T2 sequence (P30542 1-326): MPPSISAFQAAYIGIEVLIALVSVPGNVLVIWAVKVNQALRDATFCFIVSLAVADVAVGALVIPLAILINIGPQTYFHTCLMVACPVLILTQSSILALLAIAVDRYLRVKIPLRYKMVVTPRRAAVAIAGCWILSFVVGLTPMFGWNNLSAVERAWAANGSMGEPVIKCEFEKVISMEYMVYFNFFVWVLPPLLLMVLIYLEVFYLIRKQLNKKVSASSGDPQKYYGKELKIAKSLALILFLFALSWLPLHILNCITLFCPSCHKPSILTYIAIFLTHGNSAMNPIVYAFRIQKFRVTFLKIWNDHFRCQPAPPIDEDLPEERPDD
Excerpt: as §1, §2

hA3 AR [3] = target: T1, hA3 AR; assay: cAMP accumulation assay, antagonist mode, hA3 AR; design: expressed in transfected cells; details: in presence of NECA, CHO-A3#18 cells
Excerpt: as §1
(§3) hA1 and hA3 AR functional experiments were carried out in CHO-A1 and CHO-A3#18 cell line, respectively. The day before the assay, the cells were seeded on the 96-well culture plate (Falcon 353072). The cells were washed with wash buffer (Nutrient Mixture F12 Ham’s (Sigma N6658) for hA1 AR; Dulbecco’s modified eagle’s medium nutrient mixture F-12 ham (Sigma D8062) for hA3 AR; 25 mM Hepes; pH = 7.4). Wash buffer was replaced by incubation buffer (Mixture F12 Ham’s (Sigma N6658) for hA1 AR; Dulbecco’s modified eagle’s medium nutrient mixture F-12 ham (Sigma D8062) for hA3 AR; 25 mM Hepes, 20 µM Rolipram (Sigma R6520); pH = 7.4). […] After incubation, the amount of cAMP was determined using cAMP Biotrak Enzyme immunoassay (EIA) System Kit (GE Healthcare RPN225).

hA1 AR [4] = target: T2, hA1 AR; assay: cAMP accumulation assay, antagonist mode, hA1 AR; details: in presence of NECA, CHO-A1 cells
Excerpt: as §1, §3

SMILES	Dead cells (quadrant Q4) (A549 cells; 20 μM)	Dead cells (quadrant Q4) (A549 cells; 40 μM)	viability at 25 µM (NCI-H1299 cells)	Percentage activation in agonist mode, hA3 AR (hA3 AR [1])	Percentage activation in agonist mode, hA1 AR (hA1 AR [2])	Percentage inhibition in antagonist mode, hA3 AR (hA3 AR [3])	Percentage inhibition in antagonist mode, hA1 AR (hA1 AR [4])
COc1cc(Nc2nc(N)nc(-c3ccc(O)cc3)n2)ccc1Cl [Compound 9c, 4-{4-amino-6-[(4-chloro-3-methoxyphenyl)amino]-1,3,5-triazin-2-yl}phenol]	34.4%	46.1%	68.8%				
COc1ccc(-c2nc(N)nc(Nc3ccc(OC)c(F)c3)n2)cc1 [Compound 11a, N^2-(3-fluoro-4-methoxyphenyl)-6-(4-methoxyphenyl)-1,3,5-triazine-2,4-diamine]				17%	11%	77%	1%
COc1ccc(Nc2nc(N)nc(-c3ccc(F)cc3)n2)cc1F [Compound 11b, N^2-(3-fluoro-4-methoxyphenyl)-6-(4-fluorophenyl)-1,3,5-triazine-2,4-diamine]				6%	23%	88%	60%
